Experimental data as given in patent US20210253603A1, “MAIN GROUP METAL COMPLEX AND ITS PREPARATION METHOD AND USE” (PEKING UNIVERSITY, priority 2018, published 2021).

Legend:
A375 = assay: In vitro anticancer activities of complexes (Experiment 2); type: cell-based, human; details: A375, 24 hours
Source text: (§1) The cell lines used in the experiments were obtained from Peking University.

A549 [1] = assay: as above; type: cell-based, human; details: A549, 24 hours
Source text: as §1

HeLa [2] = assay: as above; type: cell-based, human; details: 24 hours
Source text: as §1

MCF7 [3] = assay: as above; type: cell-based, human; details: MCF7, 24 hours
Source text: as §1

SW480 = assay: as above; type: cell-based, human; details: SW480, 24 hours
Source text: as §1

HepG2 = assay: as above; type: cell-based; details: HepG 2, 24 hours
Source text: as §1

human microglia CHEM5 = assay: as above; type: cell-based; details: CHEM 5, 24 hours
Source text: as §1

[4] = tested on: normal colonic epithelial cells NCM460; assay: as above; type: cell-based; details: NCM460, 24 hours
Source text: as §1

[5] = tested on: human umbilical vein endothelial cells HUVEC; assay: as above; type: cell-based; details: 24 hours
Protocol: as §1
The safety index (SI) was calculated according to the following equation:
^bSafety Index (SI)=IC50(HUVEC)/IC50(Hela)

[6] = tested on: HepG2 liver cancer cell lines; assay: Cytotoxicity, CCK-8 kit, multi-cell lines (Experiment 1); type: cell-based; details: HepG 2, 24 hours
[7] = tested on: MDA-MB-231 highly metastatic breast cancer cell line; assay: as above; type: cell-based; details: MDA-MB-231, 24 hours
[8] = tested on: DU145 prostate cancer cells; assay: as above; type: cell-based; details: DU145, 24 hours
[9] = tested on: HEK293 human renal epithelial cell line; assay: as above; type: cell-based; details: HEK293, 24 hours
[10] = tested on: COS7 renal epithelial cells; assay: as above; type: cell-based; details: COS7, 24 hours
Raw264.7 = assay: as above; type: cell-based; details: Raw264.7, 24 hours
HeLa tumors = assay: In vivo tumor suppression experiment; set-up: species or system nude mice; details: after 21 days of treatment, once every 2 days
Protocol: Nude mice carrying HeLa tumors were divided into 4 […], each with 8 mice. […] The dosage was […], and the administration frequency was once every 2 days. The volume of the tumor was calculated with the length and width of the tumor according to the following formula:
Tumor volume (mm^3)=½×length×width^2.
After 21 days, the nude mice of each group were died and dissected. The tumor inhibition was calculated according to the following formula: […]
in which Wc and Wt were the masses of the tumors in the control group and the experimental group, respectively.

[11] = Hematological analysis of liver and kidney function; type: in vivo, nude mice; details: blood samples after treatment
Source text: The research indicators included alanine aminotransferase (ALT), urea nitrogen (BUN), triglycerides (TG), creatine kinase (CK), aspartate aminotransferase (AST), creatinine (CREA), high Density lipoprotein (HDLC), and lactate dehydrogenase (LDH).
The kidney function was related to the blood indicators of BUN and CREA and the liver function. The results about alanine aminotransferase (ALT) and aspartate aminotransferase (AST) in the blood of nude mice were shown in FIG. 8.

[12] = H&E staining analysis of major organs; type: in vivo, nude mice; details: after treatment
Source text: Further, the parts such as heart, spleen, lung, liver, and kidney were subjected to the H&E staining analysis.

HeLa [13] = assay: Cytotoxicity, CCK-8 kit, multi-cell lines (Experiment 1); details: 24 hours
Protocol: (§2) The cells were cultured in a cell incubator containing 5% CO2 under the atmosphere of saturated steam at a constant temperature of 37° C. The medium used was a high-sugar Dulbecco's modified Eagle's medium containing 10% fetal bovine serum, 100 μg/mL penicillin and 100 U/mL streptomycin. The cells were grown in a six-well culture plate and passaged every other day. The cytotoxicity of the complex was evaluated by the CCK-8 kit, in which the cells were passed to a 96-well plate containing about 25,000 of cells and 200 µL of medium in each well. After the cells had grown stably and adherently, the medium was changed to complete mediums with different concentrations of the complex to be detected, and a 3-well parallel experiment was performed for each concentration. After culturing in the incubator for 24 hours, the medium was removed and the cells were washed with 100 L of PBS buffer (pH=7.4) for 3 times. Subsequently, 100 L mixture of 10% CCK-8 solution and 90% serum-free medium was added into both the test wells and the control wells, and then was placed in an incubator for culturing. After about 1 hour, the absorption of 450 nm wavelength light in the test and control wells were measured by using a microplate reader, and the cell viabilities (CV) under different concentrations of the complex were calculated according to the following formula: […]

[14] = tested on: A375 human malignant melanoma cell line; assay: as above; details: A375, 24 hours
Protocol: as §2

MCF7 [15] = assay: as above; details: MCF7, 24 hours
Protocol: as §2

A549 [16] = assay: as above; details: A549, 24 hours
Protocol: as §2

Work on C#CCN(C)c1ccc2c(c1)[O][Ga-3]13([N+]#CC)([N+]#CC)[O]c4cc(N(CC)CC)ccc4C=[N+]1C(C#N)=C(C#N)[N+]3=C2.Cl [Complex 2] yielded an IC50 (A375) of 0.83 µM, an IC50 (A549 [1]) of 2.29 µM and an IC50 (HeLa [2]) of 6.35 µM. It also gave an IC50 (MCF7 [3]) of 5.29 µM, an IC50 (SW480) of 2.2 µM and an IC50 (HepG2) of 8.19 µM. The IC50 (human microglia CHEM5) was 2.82 µM, the IC50 [4] was 4.26 µM and the IC50 [5] was 1.88 µM.
For CC#[N+][Ga-3]123([N+]#CC)[O]c4ccccc4C=[N+]1C(C#N)=C(C#N)[N+]2=Cc1ccccc1[O]3.Cl [Complex 4], the IC50 (A375) was 2.2 µM, the IC50 (A549 [1]) was 1.16 µM and the IC50 (HeLa [2]) was 75.3 µM. The IC50 (MCF7 [3]) was 134 µM, the IC50 (SW480) was 0.59 µM and the IC50 (HepG2) was 43.5 µM. For the same compound, the IC50 (human microglia CHEM5) was 1.64 µM, the IC50 [4] was 27.7 µM and the IC50 [5] was 6.37 µM.
Compound CC#[N+][Ga-3]123([N+]#CC)[O]c4cc(N(C)C)ccc4C=[N+]1C(C#N)=C(C#N)[N+]2=Cc1ccc(N(C)C)cc1[O]3.Cl [Complex 6] has an IC50 (A375) of 0.07 µM, an IC50 (A549 [1]) of 1.38 µM and an IC50 (HeLa [2]) of 1.38 µM. The IC50 (MCF7 [3]) was 0.47 µM, the IC50 (SW480) was 4.85 µM and the IC50 (HepG2) was 7.75 µM. The IC50 (human microglia CHEM5) was 2.27 µM, the IC50 [4] was 6.44 µM and the IC50 [5] was 4.09 µM.
With CC#[N+][Ga-3]123([N+]#CC)[O]c4cc(N5CCCC5)ccc4C=[N+]1C(C#N)=C(C#N)[N+]2=Cc1ccc(N2CCCC2)cc1[O]3.Cl [Complex 7] the IC50 (A375) was 1.4 µM, the IC50 (A549 [1]) was 3.56 µM and the IC50 (HeLa [2]) was 8.61 µM. It also gave an IC50 (MCF7 [3]) of 14.2 µM, an IC50 (SW480) of 7.58 µM and an IC50 (HepG2) of 10.3 µM. For the same compound, the IC50 (human microglia CHEM5) was 5.71 µM, the IC50 [4] was 23.1 µM and the IC50 [5] was 2.47 µM.
C#CCN(C)c1ccc2c(c1)[O][Ga-3]13([N+]#CC)([N+]#CC)[O]c4cc(N(C)CC#C)ccc4C=[N+]1C(C#N)=C(C#N)[N+]3=C2.Cl [Complex 8] gave an IC50 (A375) of 229 µM, an IC50 (A549 [1]) of 139 µM and an IC50 (HeLa [2]) of 260 µM. It also gave an IC50 (MCF7 [3]) of 190 µM, an IC50 (SW480) of 572 µM and an IC50 (HepG2) of 291 µM. The IC50 (human microglia CHEM5) was 236 µM, the IC50 [4] was 71 µM and the IC50 [5] was 203 µM.
CC#[N+][Ga-3]123([N+]#CC)[O]c4cc(N(CC)CC)ccc4C=[N+]1c1ccccc1[N+]2=Cc1ccc(N(CC)CC)cc1[O]3.Cl [Complex 9] showed an IC50 (A375) of 1.37 µM, an IC50 (A549 [1]) of 1.22 µM and an IC50 (HeLa [2]) of 12.4 µM. It also gave an IC50 (MCF7 [3]) of 34.8 µM, an IC50 (SW480) of 4.89 µM and an IC50 (HepG2) of 46.1 µM. It also gave an IC50 (human microglia CHEM5) of 1.81 µM, an IC50 [4] of 33.5 µM and an IC50 [5] of 9.33 µM.
Work on CC#[N+][Ga-3]123([N+]#CC)[O]c4c(ccc5c4SCCN5C)C=[N+]1C(C#N)=C(C#N)[N+]2=Cc1ccc2c(c1[O]3)SCCN2C.Cl [Complex 10] yielded an IC50 (A375) of 91.2 µM, an IC50 (A549 [1]) of 124 µM and an IC50 (HeLa [2]) of 87.7 µM. For the same compound, the IC50 (MCF7 [3]) was 61.7 µM, the IC50 (SW480) was 451 µM and the IC50 (HepG2) was 72.7 µM. The IC50 (human microglia CHEM5) was 51.9 µM, the IC50 [4] was 322 µM and the IC50 [5] was 332 µM.
CC#[N+][Ga-3]123([N+]#CC)[O]c4cc5c(cc4C=[N+]1C(C#N)=C(C#N)[N+]2=Cc1cc2c(cc1[O]3)N(C)CCS2)SCCN5C.Cl [Complex 12] gave an IC50 (A375) of 10.8 µM, an IC50 (A549 [1]) of 39.3 µM and an IC50 (HeLa [2]) of 45.8 µM. For the same compound, the IC50 (MCF7 [3]) was 43.5 µM, the IC50 (SW480) was 42.6 µM and the IC50 (HepG2) was 34.6 µM. It also gave an IC50 (human microglia CHEM5) of 44.7 µM, an IC50 [4] of 89.9 µM and an IC50 [5] of 58.9 µM.
For CC#[N+][Ga-3]123([N+]#CC)[O]c4cc(N(C)CCCC)ccc4C=[N+]1C(C#N)=C(C#N)[N+]2=Cc1ccc(N(C)CCCC)cc1[O]3.Cl [Complex 13], the IC50 (A375) was 0.9 µM, the IC50 (A549 [1]) was 2.72 µM and the IC50 (HeLa [2]) was 21.5 µM. It also gave an IC50 (MCF7 [3]) of 1.74 µM, an IC50 (SW480) of 4.1 µM and an IC50 (HepG2) of 20.9 µM. For the same compound, the IC50 (human microglia CHEM5) was 2.28 µM, the IC50 [4] was 20.6 µM and the IC50 [5] was 3.5 µM.
CC#[N+][Ga-3]123([N+]#CC)[O]c4ccccc4C=[N+]1c1ccccc1[N+]2=Cc1ccccc1[O]3.Cl [Complex 14] gave an IC50 (A375) of 24 µM, an IC50 (A549 [1]) of 76.5 µM and an IC50 (HeLa [2]) of 19.5 µM. It also gave an IC50 (MCF7 [3]) of 53 µM, an IC50 (SW480) of 257 µM and an IC50 (HepG2) of 38.6 µM. For the same compound, the IC50 (human microglia CHEM5) was 65.1 µM, the IC50 [4] was 212 µM and the IC50 [5] was 163 µM.
Compound CC#[N+][Ga-3]123([N+]#CC)[O]c4cc(N(CC)CC)ccc4C=[N+]1c1ccncc1[N+]2=Cc1ccc(N(CC)CC)cc1[O]3.Cl [Complex 15] has an IC50 (A375) of 215 µM, an IC50 (A549 [1]) of 273 µM and an IC50 (HeLa [2]) of 97.4 µM. For the same compound, the IC50 (MCF7 [3]) was 204 µM, the IC50 (SW480) was 325 µM and the IC50 (HepG2) was 89.7 µM. The IC50 (human microglia CHEM5) was 298 µM, the IC50 [4] was 340 µM and the IC50 [5] was 75.8 µM.
With N.N.[Cl][Pt][Cl] [cisplatin, reference compound] the IC50 [6] was 5.3 ± 0.1 µM, the IC50 [7] was 27 ± 1.3 µM and the IC50 [8] was 2.7 ± 0.1 µM. It also gave an IC50 [9] of 2 ± 0.1 µM, an IC50 [10] of 6.7 ± 0.6 µM and an IC50 (Raw264.7) of 10.1 ± 1.2 µM. For the same compound, the tumor inhibition (HeLa tumors) was 29.9%, the “effects on liver and kidney function (blood indicators ALT, AST, BUN, CREA)” value [11] was “acute toxicity against the liver and the kidney” and the “H&E staining of liver and kidney” value [12] was “liver edema and degeneration and kidney swelling”. The IC50 (HeLa [13]) was 5.3 ± 0.3 µM, the IC50 [14] was 3.4 ± 0.3 µM and the IC50 (MCF7 [15]) was 9.1 ± 0.9 µM. The IC50 (A549 [16]) was 9.4 ± 1.5 µM.
